A short description of the series: active ingredient delivery in PhEur phosphate buffer of pH 6.8 in a USP dissolution tester. It is filed as physicochemical. The settings on record: modulator as core of theophylline pellets coated with EUDRAGIT RS, no inner controlling layer, versus microcrystalline cellulose core (Example 5).
As to `[Cl-].[Na+]` [sodium chloride], the “effect of the substance having a modulating effect on active ingredient delivery” value (shortened to “effect”) is “reducing effect”.
Take `O=C(O)CC(O)(CC(=O)O)C(=O)O` [citric acid]: the “effect” value was “accelerating effect”.
Consider `O=C([O-])CCC(=O)[O-].[Na+].[Na+]` [sodium succinate], for which the “effect” value is “accelerating effect”.
With `CC(=O)[O-].[Na+]` [sodium acetate], the “effect” value is given as “accelerating effect”.

(Values after US20060269605A1, “Multilayer pharmaceutical dosage form containing a substance that acts in a modulatory manner with regard to the release of active substances” (Roehm Gmbh & Co. KG, priority 2003, published 2006).)
